One test has as its system S. aureus ATCC 25923. Kind of test: MIC/MBC (CLSI broth microdilution) against S. aureus ATCC 25923. It is filed as cell-based. To be noted: Staphylococcus aureus, ATCC25923. Here is the method: (§1) The minimum inhibitory concentrations (MICs) of the tested compounds and control drugs, linezolid, vancomycin, and gentamicin, were determined using the broth microdilution method according to the guidelines outlined by the Clinical and Laboratory Standards Institute (CLSI) against clinically relevant bacterial (Staphylococcus aureus, MRSA, Escherichia coli, Enterococcus faecalis and Enterococcus faecium strains. S. aureus, MRSA, E. coli, Enterococcus faecalis and Enterococcus faecium were grown aerobically overnight on tryptone soy agar (TSA) plates at 37° C. Afterwards, a bacterial solution equivalent to 0.5 McFarland standard was prepared and diluted in cation-adjusted Mueller–Hinton broth (CAMHB) (for S. aureus, MRSA, and E. coli) to achieve a bacterial concentration of about 5 × 10^5 CFU/mL. Enterococcus faecalis and Enterococcus faecium 0.5 McFarland standard solution was diluted in tryptone soy broth (TSB) to achieve a bacterial concentration of about 5 × 10^5 CFU/mL. Compounds and control drugs were added in the first row of 96-well plates and serially diluted with the corresponding media containing bacteria. Plates were then incubated as previously described. […] The minimum bactericidal concentration (MBC) was tested by spotting 4 µL from wells with no growth onto TSA plates. Plates were incubated at 37 ° C for at least 18 h before recording the MBC. The MBC was categorized as the lowest concentration that reduced bacterial growth by 99.9% [45, 46, 47].

The next test has as its system VRE. faecium ATCC 700221. Kind of test: MIC/MBC (CLSI broth microdilution) against VRE faecium ATCC 700221. It is filed as cell-based. To be noted: Enterococcus. Here is the method: as §1
A general note: In broth dilution the organism is exposed to a series of concentrations in liquid medium.

The next test concerns VRE. faecalis ATCC 51299. Kind of test: MIC/MBC (CLSI broth microdilution) against VRE faecalis ATCC 51299. Type of test: cell-based. To be noted: Enterococcus. On the procedure: as §1
The test system of test [1] is E. coli BW25113 (wild-type strain). Kind of test: MIC/MBC (CLSI broth microdilution) against E. coli BW25113 wild type. Type of test: cell-based, Escherichia coli. Particulars: Escherichia coli. Here is the method: as §1
The subject of a further test is E. faecalis ATCC 29212. Kind of test: MIC/MBC (CLSI broth microdilution) against E. faecalis ATCC 29212. It is filed as cell-based. To be noted: Enterococcus faecalis, ATCC29212. On the procedure:
as §1

The next test deals with VRE. faecalisATCC 51575. Kind of test: MIC/MBC (CLSI broth microdilution) against VRE faecalis ATCC 51575. Type of test: cell-based. Particulars: Enterococcus. Here is the method:
as §1

Test [2] deals with E. coli JW55031 (TolC Mutant). Kind of test: MIC/MBC (CLSI broth microdilution) against E. coli TolC mutant. It is filed as cell-based. To be noted: Escherichia coli. Here is the method: as §1
The test system of test [3] is L. monocytogenes ATCC 19115. Kind of test: MIC/MBC (CLSI broth microdilution) against L. monocytogenes ATCC 19115. It is filed as cell-based. To be noted: Listeria monocytogenes, ATCC19115.
The subject of a further test is MRSA USA300. Kind of test: MIC/MBC (CLSI broth microdilution) against MRSA USA300. Particulars: Staphylococcus aureus. It is filed as cell-based, methicillin-resistant Staphylococcus aureus. On the procedure:
as §1

For the next test, the system named is N. gonorrhoeae 194. Kind of test: MIC/MBC against N. gonorrhoeae clinical isolate 194. It is filed as cell-based. Particulars: Neisseria gonorrhoeae. Here is the method:
(§2) Briefly, bacteria were grown overnight on chocolate agar II at 37° C in the presence of 5% CO2. Afterwards, a bacterial suspension equivalent to 1.0 McFarland standard was prepared and diluted in brucella broth supplemented with yeast extract, neopeptone, hematin, pyridoxal, and NAD. Test agents were added in the first row of the 96-well plates and serially diluted along the plates. Plates were then incubated at 37° C in the presence of 5% CO2 for 24 h. […] Plates were then incubated at 37 ° C in the presence of 5% CO2 for 24 h. The MBC was categorized as the lowest concentration that reduced bacterial growth by 99.9% [45, 46, 47].

The test system of the next test is N. gonorrhoeae 166. Kind of test: MIC/MBC against N. gonorrhoeae clinical isolate 166. To be noted: Neisseria gonorrhoeae. Type of test: cell-based. Here is the method:
as §2

Another test deals with N. gonorrhoeae 200. Kind of test: MIC/MBC against N. gonorrhoeae clinical isolate 200. Type of test: cell-based. To be noted: Neisseria gonorrhoeae. Here is the method:
as §2

Another test relates to N. gonorrhoeae 165. Kind of test: MIC/MBC against N. gonorrhoeae clinical isolate 165. Type of test: cell-based. To be noted: Neisseria gonorrhoeae. Here is the method: as §2
The subject of another test is N. gonorrhoeae WHO L. Kind of test: MIC/MBC against N. gonorrhoeae WHO L reference strain. To be noted: Neisseria gonorrhoeae. It is filed as cell-based. On the procedure:
as §2

Test [4] deals with N. gonorrhoeae strain 181. Kind of test: MIC by broth microdilution against N. gonorrhoeae strain 181. It is filed as cell-based, Neisseria gonorrhoeae. Particulars: Neisseria gonorrhoeae; N. gonorrhoeae strain 181; read-out: MIC. On the procedure:
as §2

In another test the test system is N. gonorrhoeae 197. Kind of test: MIC/MBC against N. gonorrhoeae clinical isolate 197. Type of test: cell-based. To be noted: Neisseria gonorrhoeae. On the procedure:
as §2

Converted amounts (≈) assume the structure as drawn. Like-named read-outs stand apart in the source and are kept apart here.

Broadly, the MBC is the smallest concentration meeting the test's criterion for killing. A word on the MIC: it is the smallest concentration in the dilution series that meets the test's criterion for growth inhibition. Turning to `CC(=O)NC[C@H]1CN(c2ccc(N3CCOCC3)c(F)c2)C(=O)O1` [Linezolid, linezolid, reference compound], the MBC in the test on S. aureus ATCC 25923 (S. aureus ATCC 25923, read-out: MBC) was 64 µg/mL (≈ 190 µM); with VRE. faecium ATCC 700221 (VRE faecium ATCC 700221, read-out: MBC) it was 64 µg/mL (≈ 190 µM); in the test with VRE. faecalis ATCC 51299 (VRE faecalis ATCC 51299, read-out: MBC), 32 µg/mL (≈ 94.9 µM); in [1] (E. coli BW25113 wild-type strain, read-out: MBC), greater than 64 µg/mL; with E. faecalis ATCC 29212 (E. faecalis ATCC 29212, read-out: MBC), 64 µg/mL (≈ 190 µM); in the test on VRE. faecalisATCC 51575 (VRE faecalis ATCC 51575, read-out: MBC), 64 µg/mL (≈ 190 µM). Also, the MBC in [2] was greater than 64 µg/mL; in [3] (L. monocytogenes ATCC 19115, read-out: MBC), 64 µg/mL (≈ 190 µM); in the test on MRSA USA300 (MRSA USA300, read-out: MBC), 16 µg/mL (≈ 47.4 µM). Also, the MIC in the test on S. aureus ATCC 25923 (S. aureus ATCC 25923, read-out: MIC) was 2 µg/mL (≈ 5.93 µM); in the test on VRE. faecium ATCC 700221 (VRE faecium ATCC 700221, read-out: MIC), 2 µg/mL (≈ 5.93 µM); with VRE. faecalis ATCC 51299 (VRE faecalis ATCC 51299, read-out: MIC), 1 µg/mL (≈ 2.96 µM); in test [1] (E. coli BW25113 wild-type strain, read-out: MIC) it was greater than 64 µg/mL; with E. faecalis ATCC 29212 (E. faecalis ATCC 29212, read-out: MIC), 2 µg/mL (≈ 5.93 µM); in the test on VRE. faecalisATCC 51575 (VRE faecalis ATCC 51575, read-out: MIC), 2 µg/mL (≈ 5.93 µM). Further, the MIC in [2] was determined as 8 µg/mL (≈ 23.7 µM); in test [3] (L. monocytogenes ATCC 19115, read-out: MIC) it was 2 µg/mL (≈ 5.93 µM); in the test on MRSA USA300 (MRSA USA300, read-out: MIC), 1 µg/mL (≈ 2.96 µM).
Consider `CN(C)[C@@H]1C(O)=C(C(N)=O)C(=O)[C@@]2(O)C(O)=C3C(=O)c4c(O)cccc4[C@@](C)(O)[C@H]3C[C@@H]12` [Tetracycline, tetracycline, reference compound], for which the MBC with N. gonorrhoeae 194 is 4 µg/mL (≈ 9 µM); in the test with N. gonorrhoeae 166, 8 µg/mL (≈ 18 µM); against N. gonorrhoeae 200, 8 µg/mL (≈ 18 µM); against N. gonorrhoeae 165, 8 µg/mL (≈ 18 µM); in the test with N. gonorrhoeae WHO L, 2 µg/mL (≈ 4.5 µM); in the test with N. gonorrhoeae 197 it was 4 µg/mL (≈ 9 µM). In addition, the minimal inhibitory concentration (MIC) against N. gonorrhoeae 194 turned out to be 1 µg/mL (≈ 2.25 µM); in the test with N. gonorrhoeae 166, 2 µg/mL (≈ 4.5 µM); in the test with N. gonorrhoeae 200, 2 µg/mL (≈ 4.5 µM); in the test with N. gonorrhoeae 165, 4 µg/mL (≈ 9 µM); with N. gonorrhoeae WHO L it was 0.5 µg/mL (≈ 1.13 µM); in test [4], 2 µg/mL (≈ 4.5 µM). The compound further registered an MIC in the test on N. gonorrhoeae 197 of 2 µg/mL (≈ 4.5 µM).
Take `CN[C@H](CC(C)C)C(=O)N[C@H]1C(=O)N[C@@H](CC(N)=O)C(=O)N[C@H]2C(=O)N[C@H]3C(=O)N[C@H](C(=O)N[C@H](C(=O)O)c4cc(O)cc(O)c4-c4cc3ccc4O)[C@H](O)c3ccc(c(Cl)c3)Oc3cc2cc(c3O[C@@H]2O[C@H](CO)[C@@H](O)[C@H](O)[C@H]2O[C@H]2C[C@](C)(N)[C@H](O)[C@H](C)O2)Oc2ccc(cc2Cl)[C@H]1O` [Vancomycin, vancomycin, reference compound]: the MBC in the test on S. aureus ATCC 25923 is 1 µg/mL (≈ 0.69 µM); against VRE. faecium ATCC 700221 it was 32 µg/mL (≈ 22.1 µM); against VRE. faecalis ATCC 51299 it was greater than 64 µg/mL; in test [1] (BW25113), greater than 64 µg/mL; against E. faecalis ATCC 29212, 1 µg/mL (≈ 0.69 µM); against VRE. faecalisATCC 51575 it was greater than 64 µg/mL. The MBC in test [2] was greater than 64 µg/mL; in [3] it was 1 µg/mL (≈ 0.69 µM); in the test with MRSA USA300 it was 2 µg/mL (≈ 1.38 µM). Besides, the MIC against S. aureus ATCC 25923 was 1 µg/mL (≈ 0.69 µM); against VRE. faecium ATCC 700221, 32 µg/mL (≈ 22.1 µM); against VRE. faecalis ATCC 51299, greater than 64 µg/mL; in test [1] (BW25113), greater than 64 µg/mL; in the test on E. faecalis ATCC 29212, 1 µg/mL (≈ 0.69 µM); in the test on VRE. faecalisATCC 51575 it was greater than 64 µg/mL. Besides, the figures for the MIC (in test [2]; in [3]; with MRSA USA300) were greater than 64 µg/mL, 1 µg/mL (≈ 0.69 µM) and 1 µg/mL (≈ 0.69 µM), respectively.

(Values after article PMC7957578, “N-(1,3,4-Oxadiazol-2-yl)Benzamides as Antibacterial Agents against Neisseria gonorrhoeae” (International Journal of Molecular Sciences, 2021).)
